The structures appear in SMILES notation.

This assay addresses T1, Mas-related G-protein coupled receptor member X2 (Homo sapiens, UniProt Q96LB1).
T1 sequence (Q96LB1 whole entry): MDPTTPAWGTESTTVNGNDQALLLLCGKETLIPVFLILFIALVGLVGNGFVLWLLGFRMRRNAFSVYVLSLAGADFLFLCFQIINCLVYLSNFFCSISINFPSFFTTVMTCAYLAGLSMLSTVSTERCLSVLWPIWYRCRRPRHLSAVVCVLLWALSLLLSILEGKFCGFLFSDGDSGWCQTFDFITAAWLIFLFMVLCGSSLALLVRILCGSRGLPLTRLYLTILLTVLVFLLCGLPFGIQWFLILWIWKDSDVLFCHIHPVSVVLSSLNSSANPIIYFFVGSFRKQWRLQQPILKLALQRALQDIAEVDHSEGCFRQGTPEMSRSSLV
As to the kind of experiment: MRGPRX2 Activity Assay. Here is the method:
FlpIn TRex-MRGPRX2-HEK293 cells (herein TRex-MRPGRX2-HEK) stably transfected to express human MRGPRX2 were maintained at 37 °C with 5% CO2 and grown in DMEM supplemented with 10% FBS, 1% L-Glutamate, 1% penicillin/streptomycin, 100ug/mL Hygromycin B, and 15 µg/mL Blasticidin. GOI (MRGPRX2) expression was induced with 100ng/mL of Doxycycline 18-24 hours prior to experiment, in flask. On the day of experiment, cells were lifted with TripLE Express and seeded in 384-well white walled opaque bottomed, assay plates, at 8,000 cells per well in 5 µL freshly made assay buffer (HBSS, 20 mM HEPES, 0.1% BSA and 10 mM LiCl). Compounds solubilized in 100% DMSO at 30 mM were serially diluted (1:4) first in 100% DMSO, and an intermediate plate of assay buffer was used to establish a final top concentration of 30 µM (in assay plate). Final DMSO concentration was kept constant at 1% across assay plates. Cortistatin-14, at 30 mM stock concentration was solubilized in HBSS + 0.1% BSA, stored at -20°C in 5 µL aliquots and discarded after one freeze-thaw cycle. […] Antagonist equilibrium was established with 30 minutes preincubation, followed by no wash, direct addition, and stimulation of agonist for 1 hour at 37 °C / 5% CO2. IP-1 standards and HTRF detection reagents were added according to the IP-one Gq kit protocol purchased from CisBio (part number 62IPAPEJ). The plate was read on an EnVision XCite plate reader. The HTRF ratio was then calculated from raw data (channel1/channel2 ×10,000) and analyzed using either GraphPad Prism or a custom Python script to calculate IC50 using Log[Antagonist] vs. response (4 parameter) nonlinear regression.
In general, IC50 refers to the midpoint of a concentration-inhibition curve. In the case of `C[C@@H](C(=O)Nc1nc2cc3c(cc2s1)OC(F)(F)O3)N1CCO[C@@H](c2ccc(=O)[nH]c2)C1` [WO2025064535, Compound 3], half-maximal inhibition (IC50) was put at 0.049 µM.

With `C[C@@H](C(=O)Nc1nc2cc3c(cc2s1)OC(F)(F)O3)N1CCO[C@H](c2ccc(=O)[nH]c2)C1` [WO2025064535, Compound 4], the IC50 was greater than 30 µM.

`C[C@@H](C(=O)Nc1nc2cc3c(cc2s1)OC(F)(F)O3)N1CCC[C@@H](CO)C1` [WO2025064535, Compound 7] came in with an IC50 of 1.13 µM.

The molecule `C[C@@H](C(=O)Nc1cc2cc3c(cc2s1)OC(F)(F)O3)N1CCC(F)(F)[C@@H](c2c[nH]c(=O)c([C@H](N)C(F)(F)F)c2)C1` [WO2025064535, Compound 14] returned a 50% inhibitory concentration (IC50) of 12.8 µM.

In turn, `C[C@@H](C(=O)Nc1nc2cc3c(cc2s1)CCC3)N1CCC(F)(F)CC1` [WO2025064535, Compound 18] came in with an IC50 of 0.085 µM.

`C[C@@H](C(=O)Nc1nc2cc3c(cc2s1)OC(F)(F)O3)N1CCC(F)(F)[C@@H](c2c[nH]c(=O)c([C@H](N)C(F)F)c2)C1` [WO2025064535, Compound 21] had an IC50 of 0.018 µM.

With `C[C@@H](C(=O)Nc1nc2cc3c(cc2s1)OC(F)(F)O3)N1CCC(F)(F)[C@@H](c2c[nH]c(=O)c([C@@H](N)C(F)F)c2)C1` [WO2025064535, Compound 22], the IC50 amounted to 0.017 µM.

Turning to `C[C@@H](C(=O)Nc1nc2cc3c(cc2s1)OC(F)(F)O3)N1CCC(F)(F)[C@H](c2c[nH]c(=O)c([C@H](N)C(F)F)c2)C1` [WO2025064535, Compound 23], the IC50 worked out at 9.01 µM.

Molecule `C[C@@H](C(=O)Nc1nc2cc3c(cc2s1)OC(F)(F)O3)N1CCC(F)(F)[C@H](c2c[nH]c(=O)c([C@@H](N)C(F)F)c2)C1` [WO2025064535, Compound 24] returned an IC50 greater than 30 µM.

Consider `C[C@@H](C(=O)Nc1nc2cc3c(cc2s1)CCC3)N1CCC(F)(F)[C@@H](c2ccc(=O)[nH]c2)C1` [WO2025064535, Compound 27], for which the midpoint of inhibition, the IC50, lay at 0.292 µM.

Molecule `C[C@@H](C(=O)Nc1nc2cc3c(cc2s1)OCCO3)N1CCC(F)(F)[C@H](c2ccc(=O)[nH]c2)C1` [WO2025064535, Compound 30] returned an IC50 of 1.07 µM.

The molecule `C[C@@H](C(=O)Nc1nc2cc3c(cc2s1)OC(F)(F)O3)N1CCC(F)(F)[C@@H](c2ccc(=O)[nH]c2)C1` [WO2025064535, Compound 31] came in with an IC50 greater than 30 µM.

For `C[C@@H](C(=O)Nc1nc2cc3c(cc2s1)OC(F)(F)O3)N1CCC(F)(F)[C@H](c2c[nH]c(=O)cn2)C1` [WO2025064535, Compound 35], the IC50 was found to be 1.02 µM.

Regarding `C[C@@H](C(=O)Nc1nc2cc3c(cc2s1)OC(F)(F)O3)N1CC[C@@H](F)[C@@H](c2cc[n+]([O-])cc2)C1` [WO2025064535, Compound 36], the IC50 was greater than 30 µM.

Take `C[C@@H](C(=O)Nc1nc2cc3c(cc2s1)OC(F)(F)O3)N1CC[C@@H](F)[C@H](c2cc[n+]([O-])cc2)C1` [WO2025064535, Compound 37]: the IC50 was greater than 30 µM.

In turn, `C[C@@H](C(=O)Nc1nc2cc3c(cc2s1)OC(F)(F)O3)N1CC[C@H](F)[C@H](c2cc[n+]([O-])cc2)C1` [WO2025064535, Compound 39] came in with an IC50 of 0.223 µM.

Turning to `C[C@@H](C(=O)Nc1nc2cc3c(cc2s1)OCCO3)N1CCC(F)(F)[C@@H](c2c[nH]c(=O)cn2)C1` [WO2025064535, Compound 40], the midpoint of inhibition, the IC50, lay at 0.77 µM.

Turning to `C[C@@H](C(=O)Nc1nc2cc3c(cc2s1)OC(F)(F)O3)N1CCC(F)(F)[C@@H](c2c[nH]c(=O)c([C@@H](O)CO)c2)C1` [WO2025064535, Compound 42], the IC50 is greater than 30 µM.

For the molecule `C[C@@H](C(=O)Nc1nc2cc3c(cc2s1)OC(F)(F)O3)N1CCC(F)(F)[C@@H](c2c[nH]c(=O)c([C@H](O)CO)c2)C1` [WO2025064535, Compound 44], the IC50 is greater than 30 µM.

Regarding `C[C@@H](C(=O)Nc1nc2cc3c(cc2s1)OC(F)(F)O3)N1CCC(F)(F)[C@H](c2c[nH]c(=O)c([C@H](O)CO)c2)C1` [WO2025064535, Compound 45], 0.022 µM corresponded to half-maximal inhibition (IC50).

For `C[C@@H](C(=O)Nc1nc2cc3c(cc2s1)OC(F)(F)O3)N1CCC[C@H](c2cc[n+]([O-])cc2)C1` [WO2025064535, Compound 50], the IC50 worked out at 0.222 µM.

Molecule `C[C@@H](C(=O)Nc1nc2cc3c(cc2s1)OC(F)(F)O3)N1CCC(F)(F)[C@@H](c2cc[n+]([O-])c([C@@H](O)CO)c2)C1` [WO2025064535, Compound 51] displayed a half-inhibitory concentration (IC50) greater than 30 µM.

Molecule `C[C@@H](C(=O)Nc1nc2cc3c(cc2s1)OC(F)(F)O3)N1CCC(F)(F)[C@H](c2cc[n+]([O-])c([C@@H](O)CO)c2)C1` [WO2025064535, Compound 52] yielded an IC50 greater than 30 µM.

In turn, `C[C@@H](C(=O)Nc1nc2cc3c(cc2s1)OC(F)(F)O3)N1CCC(F)(F)[C@@H](c2cc[n+]([O-])c([C@H](O)CO)c2)C1` [WO2025064535, Compound 53] returned an IC50 of 0.03 µM.

The molecule `C[C@@H](C(=O)Nc1nc2cc3c(cc2s1)OC(F)(F)O3)N1CCC(F)(F)[C@@H](n2ccc(=O)[nH]c2=O)C1` [WO2025064535, Compound 62] returned a concentration for half-maximal inhibition (IC50) greater than 30 µM.

On to `C[C@@H](C(=O)Nc1nc2cc3c(cc2s1)OC(F)(F)O3)N1CCC(F)(F)[C@H](n2ccc(=O)[nH]c2=O)C1` [WO2025064535, Compound 63], for which the IC50 turned out to be 0.635 µM.

The molecule `C[C@@H](C(=O)Nc1nc2cc3c(cc2s1)OC(F)(F)O3)N1CCC(F)(F)[C@@H](c2cc[n+]([O-])c(CN)c2)C1` [WO2025064535, Compound 64] came in with an IC50 greater than 30 µM.

The molecule `C[C@@H](C(=O)Nc1nc2cc3c(cc2s1)OC(F)(F)O3)N1CCC(F)(F)[C@H](c2cc[n+]([O-])c(CN)c2)C1` [WO2025064535, Compound 65] had an IC50 of 0.032 µM.

Regarding `C[C@@H](C(=O)Nc1nc2cc3c(cc2s1)OC(F)(F)O3)N1CCC(F)(F)[C@@H](c2c[nH]c(=O)c(CN3CCOCC3)c2)C1` [WO2025064535, Compound 66], the IC50 is greater than 30 µM.

In the case of `C[C@@H](C(=O)Nc1nc2cc3c(cc2s1)OC(F)(F)O3)N1CCC(F)(F)[C@H](c2c[nH]c(=O)c(CN3CCOCC3)c2)C1` [WO2025064535, Compound 67], the IC50 was determined as 0.303 µM.

Take `C[C@@H](C(=O)Nc1nc2cc3c(cc2s1)OC(F)(F)O3)N1CCC(F)(F)[C@@H](c2c[nH]c(=O)c(CN3CCC(F)(F)CC3)c2)C1` [WO2025064535, Compound 68]: the IC50 was greater than 30 µM.

In the case of `C[C@@H](C(=O)Nc1nc2cc3c(cc2s1)OC(F)(F)O3)N1CCC(F)(F)[C@H](c2c[nH]c(=O)c(CN3CCC(F)(F)CC3)c2)C1` [WO2025064535, Compound 69], the IC50 amounted to 0.169 µM.

`C[C@@H](C(=O)Nc1nc2cc3c(cc2s1)OCO3)N1CCC(F)(F)[C@@H](c2cc[n+]([O-])cc2)C1` [WO2025064535, Compound 80] registered an IC50 of 0.196 µM.

On to `C[C@@H](C(=O)Nc1nc2cc3c(cc2s1)OC(F)(F)O3)N1CCC(F)(F)[C@@H](c2c[nH]c(=O)c(CN)c2)C1` [WO2025064535, Compound 82], for which the midpoint of inhibition, the IC50, lay at 2.11 µM.

In turn, `C[C@H](C(=O)Nc1nc2cc3c(cc2s1)OC(F)(F)O3)N1CCC(F)(F)[C@H](c2c[nH]c(=O)c(CN)c2)C1` [WO2025064535, Compound 83] had an IC50 greater than 30 µM.

Take `C[C@H](C(=O)Nc1nc2cc3c(cc2s1)OC(F)(F)O3)N1CCC(F)(F)[C@@H](c2c[nH]c(=O)c(CN)c2)C1` [WO2025064535, Compound 84]: the IC50 worked out at 1.16 µM.

As for `CNCc1cc([C@H]2CN([C@@H](C)C(=O)Nc3nc4cc5c(cc4s3)OC(F)(F)O5)CCC2(F)F)cc[n+]1[O-]` [WO2025064535, Compound 101], the midpoint of inhibition, the IC50, lay at 3.43 µM.

`C[C@@H](C(=O)Nc1nc2cc3c(cc2s1)OC(F)(F)O3)N1CCC(F)(F)[C@@H](c2ncn[nH]2)C1` [WO2025064535, Compound 104] showed a half-inhibitory concentration (IC50) of 0.031 µM.

In the case of `C[C@@H](C(=O)Nc1nc2cc3c(cc2s1)OC(F)(F)O3)N1CCC(F)(F)[C@H](c2ncn[nH]2)C1` [WO2025064535, Compound 105], the IC50 is 0.509 µM.

`C[C@@H](C(=O)Nc1nc2cc3c(cc2s1)CCC3)N1CCC(F)(F)[C@@H](c2c[nH]c(=O)c(CO)c2)C1` [WO2025064535, Compound 106]: the half-inhibitory concentration (IC50) was greater than 30 µM.

(Values after BindingDB's records for patent WO2025064535 (Deep Apple Therapeutics, 2025).)
